± gives the expanded uncertainty stated by the source.
Conditions: Liquid, Falling or rolling sphere viscometry

CCCCn1cc[n+](C)c1C.O=S(=O)([N-]S(=O)(=O)C(F)(F)F)C(F)(F)F
viscosity [mPa·s]
Conditions | 10000 kPa | 15000 kPa | 25000 kPa | 50000 kPa | 75000 kPa | 100000 kPa | 125000 kPa | 150000 kPa
313.15 K | 55.9 ± 5.7 | 59.5 ± 6.1 | 67.3 ± 6.9 | 90.7 ± 9.5 | 120.9 ± 13 | 159.8 ± 17 | 210.1 ± 24 | 275 ± 32
343.15 K | 19.5 ± 2.2 | 20.5 ± 2.3 | 22.7 ± 2.5 | 28.8 ± 3.3 | 36.3 ± 4.2 | 45.5 ± 5.4 | 56.9 ± 6.8 | 70.9 ± 8.7
363.15 K | 12.4 ± 1.3 | 13 ± 1.4 | 14.3 ± 1.5 | 17.9 ± 1.9 | 22.1 ± 2.3 | 26.9 ± 2.9 | 32.4 ± 3.5 | 38.7 ± 4.2
